Converted amounts (≈) assume the structure as drawn.
What was measured:
MOLT-4 = assay: Cell viability panel, ATPlite 1Step; type: cell-based; conditions: Homo sapiens, T acute lymphoblastic leukemia, 72 h exposure, read-out: Compound EC50
Experimental: (§1) Cell viability panel studies. Cells were diluted in the corresponding ATCC recommended medium and dispensed in a 384-well plate, depending on the cell line used, at a density of 200-6400 cells per well. For each used cell line, the optimal cell density was used. Compound was serially diluted and 8 concentration (0.04-32 μM) were added to the cells for 72 h exposure. At t=end, of ATPlite 1Step™ (PerkinElmer) were used to calculate cell viability. Cell lines marked with asterisk were seeded 24 h prior to treatment in 96-well plates at the density range of 5,000-40,000 cells/well, according to duplication rate, in RPMI 1640 medium containing 10% fetal bovine serum and 2 mM L-glutamine. Compounds were diluted from 10 mM DMSO stock and treatment was applied at the range of 0.04-1 μM. Following incubation at 37° C. for 48 hours with increasing concentrations of the compounds, viability was determined with CyQUANT® Direct Assay Kit (Invitrogen). Output intensities were normalized to values after treatment with DMSO alone, and EC50 values were calculated using the absorbance measurements [time zero, (Tz), growth control, (C), plus the test growth at the four drug concentration levels (Ti)] as follows: [(Ti−Tz)/(C−Tz)]×100 for concentrations for which Ti>/=Tz; [(Ti−Tz)/Tz]×100 for concentrations for which Ti−<Tz.

NCI-H82 = assay: Cell viability panel, ATPlite 1Step; type: cell-based; conditions: Homo sapiens, Small cell lung carcinoma, 72 h exposure, read-out: Compound EC50
Experimental: as §1

HuTu 80 = assay: Cell viability panel, ATPlite 1Step; type: cell-based; conditions: Homo sapiens, HuTu80, Duodenal adenocarcinoma, 72 h exposure, read-out: Compound EC50
Experimental: as §1

RL = assay: Cell viability panel, ATPlite 1Step; type: cell-based; conditions: Homo sapiens, Diffuse large B-cell lymphoma, 72 h exposure, read-out: Compound EC50
Experimental: as §1

DU 145 = assay: Cell viability panel, ATPlite 1Step; type: cell-based; conditions: Homo sapiens, Prostate carcinoma, 72 h exposure, read-out: Compound EC50
Experimental: as §1

COLO 205 = assay: Cell viability panel, ATPlite 1Step; type: cell-based; conditions: Homo sapiens, Colon adenocarcinoma, 72 h exposure, read-out: Compound EC50
Experimental: as §1

A-704 = assay: Cell viability panel, ATPlite 1Step; type: cell-based; conditions: Homo sapiens, A704, Renal cell carcinoma, 72 h exposure, read-out: Compound EC50
Experimental: as §1

NCI-H661 = assay: Cell viability panel, ATPlite 1Step; type: cell-based; conditions: Homo sapiens, Large cell lung carcinoma, 72 h exposure, read-out: Compound EC50
Experimental: as §1

J82 = assay: Cell viability panel, ATPlite 1Step; type: cell-based; conditions: Homo sapiens, Bladder carcinoma, 72 h exposure, read-out: Compound EC50
Experimental: as §1

HCT-15 = assay: Cell viability panel, ATPlite 1Step; type: cell-based; conditions: Homo sapiens, Colon adenocarcinoma, 72 h exposure, read-out: Compound EC50
Experimental: as §1

RS4-11 = assay: Cell viability panel, ATPlite 1Step; type: cell-based; conditions: Homo sapiens, B acute lymphoblastic leukemia, 72 h exposure, read-out: Compound EC50
Experimental: as §1

DLD-1 = assay: Cell viability panel, ATPlite 1Step; type: cell-based; conditions: Homo sapiens, Colon adenocarcinoma, 72 h exposure, read-out: Compound EC50
Experimental: as §1

K-562 = assay: Cell viability panel, ATPlite 1Step; type: cell-based; conditions: Homo sapiens, K562, Chronic myelogenous leukemia, 72 h exposure, read-out: Compound EC50
Experimental: as §1

JAR = assay: Cell viability panel, ATPlite 1Step; type: cell-based; conditions: Gestational choriocarcinoma, 72 h exposure, read-out: Compound EC50
Experimental: as §1

[1] = Kinetic solubility by differential UV absorbance; type: physicochemical; conditions: aqueous buffer, kinetic from dmso stock; DMSO stock diluted in PBS, OD before and after centrifugation
Experimental: FIG. 3A-3B depict the kinetic solubility of Compound B1 (FIG. 3A) and Compound E1 (FIG. 3B) as measured by differential UV absorbance of the compounds, as performed before and after centrifugation. Soluble concentrations were determined when OD was equivalent between centrifuged and non-centrifuged fractions. Compounds were dissolved from co-solvent stock, and further serially 2-fold diluted in PBS. OD was measured at the maximal absorbance for each compound before (BC) and after (AC) centrifugation, using Spark 20M, Tecan.
Kinetic solubility quantification. Compound B1/Compound E1 DMSO stock was diluted with PBS by serial 2-fold dilutions. Then, the samples were centrifuged for 5 minutes at 17,000 g to precipitate any insoluble compound. Each sample was tested at a single wave length (Compound B1 at […]; Compound E1 at […]) in duplicate before and after centrifugation to assess solubility of the compound. Soluble concentrations were determined when optical density (OD) was equivalent between centrifuged and non-centrifuged fractions.
Kinetic solubility of all Compounds was determined by differential UV absorbance before and after centrifugation. […] Solubility concentration was determined when OD was equivalent between centrifuged and non-centrifuged fractions (FIG. 3A-3B).

NCI-H460 = assay: NCI60 screen cytotoxicity; type: cell-based; conditions: Homo sapiens, Lung cancer, read-out: Compound B1 EC50
SK-MEL-2 = assay: NCI60 screen cytotoxicity; type: cell-based; conditions: Homo sapiens, Melanoma, read-out: Compound B1 EC50
EKVX = assay: NCI60 screen cytotoxicity; type: cell-based; conditions: Homo sapiens, Lung cancer, read-out: Compound B1 EC50
SK-OV-3 = assay: NCI60 screen cytotoxicity; type: cell-based; conditions: Homo sapiens, Ovarian cancer, read-out: Compound B1 EC50
U251 = assay: NCI60 screen cytotoxicity; type: cell-based; conditions: Homo sapiens, U-251, CNS, read-out: Compound B1 EC50
IGR-OV1 = assay: NCI60 screen cytotoxicity; type: cell-based; conditions: Homo sapiens, IGROV-1, Ovarian cancer, read-out: Compound B1 EC50
MDA-MB-468 = assay: NCI60 screen cytotoxicity; type: cell-based; conditions: Homo sapiens, Breast cancer, read-out: Compound B1 EC50
SNB-75 = assay: NCI60 screen cytotoxicity; type: cell-based; conditions: Homo sapiens, CNS, read-out: Compound B1 EC50
SF-539 = assay: NCI60 screen cytotoxicity; type: cell-based; conditions: Homo sapiens, CNS, read-out: Compound B1 EC50
OVCAR-8 = assay: NCI60 screen cytotoxicity; type: cell-based; conditions: Homo sapiens, Ovarian cancer, read-out: Compound B1 EC50

CN(C)CCCS(=O)(=O)N1C/C(=C\c2ccc(C#N)cc2)C(=O)/C(=C/c2ccc(C#N)cc2)C1 [Compound AA]
EC50 (MOLT-4): < 300 nM | EC50 (NCI-H82): < 300 nM | EC50 (HuTu 80): < 300 nM | EC50 (RL): < 300 nM | EC50 (DU 145): 300 to 1000 nM | EC50 (COLO 205): < 300 nM | EC50 (A-704): 300 to 1000 nM | EC50 (NCI-H661): 300 to 1000 nM | EC50 (J82): 300 to 1000 nM | EC50 (HCT-15): 300 to 1000 nM | EC50 (RS4-11): < 300 nM | EC50 (DLD-1): < 300 nM | EC50 (K-562): < 300 nM | EC50 (JAR): < 300 nM

CN(C)CC(=O)NCC(=O)N1C/C(=C\c2ccc(C#N)cc2)C(=O)/C(=C/c2ccc(C#N)cc2)C1 [Compound B1]
solubility kinetic [1]: 50 µM (≈ 23.4 µg/mL) | EC50 (NCI-H460): < 300 nM | EC50 (SK-MEL-2): < 300 nM | EC50 (EKVX): 300 to 1000 nM | EC50 (SK-OV-3): < 300 nM | EC50 (U251): < 300 nM | EC50 (IGR-OV1): < 300 nM | EC50 (MDA-MB-468): < 300 nM | EC50 (SNB-75): 300 to 1000 nM | EC50 (SF-539): 300 to 1000 nM | EC50 (OVCAR-8): < 300 nM

Source: patent publication US20200399262A1, “COMPOUNDS FOR INHIBITING PROTEIN DEGRADATION AND METHODS OF USE THEREOF IN THE TREATMENT OF CANCER” (PI Therapeutics Ltd, priority 2018, published 2020)
